Data as given in article PMC4467156, “A new chemical inhibitor of angiogenesis and tumorigenesis that targets the VEGF signaling pathway upstream of Ras” (Oncotarget, 2015).

Experiments:
[1] = tested on: HMEC-GFP cells; test: Scratch wound closure assay, HMEC-GFP; format: cell-based, human; conditions: Homo sapiens
Source text: In order to adapt the endothelial scratch wounding assay to the constraints of high throughput screening, we decided to use an endothelial cell line rather than primary cultures for the sake of reproducibility. Since angiogenesis is triggered by capillary endothelial cells, we selected the HMEC-1 cell line which consists of human dermal microvascular endothelial cells stably expressing SV40 […] antigen. We infected this cell line with GFP-encoding retroviral particles and selected one clone (thereafter named HMEC-GFP) that presented a high level of fluorescence and a strong proliferation rate (doubling time in the presence of serum: 22 h). We controlled that GFP expression was stable over at least 50 passages and that these cells still expressed endothelial markers such as VE-cadherin and CD31. In a standard assay, HMEC-GFP cells were grown until confluence in 96-well plates in the presence of serum, scratched with the multi-tip dispenser of the HTS automat, gently rinsed twice to eliminate detached cells and cell debris that could liberate inflammatory and potentially angiogenic cytokines, and incubated for 24 h in the presence of serum and the compounds to be tested. Each well was photographed at time 0 h (after wounding) and 24 h under a motorized epifluorescence microscope and the digitized images were analyzed using Image J to determine the percentage of wound closure (Figure 1A, 1B). Under our standard conditions, the closure rate was 72 ± 4% in the positive controls and 27 ± 4.% in the negative controls.
Confluent cell monolayers were wounded with a plastic pipet tip, washed gently with phosphate buffer saline (PBS) and treated with complete media containing molecules, as indicated. Cells were placed at 37°C into the incubator and photographed at indicated times. Quantitation of closure of the monolayer was performed using the NIH Image J program (http://rsbweb.nih.gov/ij/). Results are expressed as percentage of wound closure at t = 24 h as compared to the initial wound at t = 0 h.

[2] = tested on: HUVEC cells; test: Boyden chamber cell migration assay; format: cell-based, human; conditions: 25 μM COB223 in upper chamber
Description: The assay was performed using 24-multiwell plates and individual cell culture inserts bearing a porous (size of pores: 3 μm) and dyed bottom membrane, which were purchased from BD (FluoroBlok^TM). HUVEC cells were rendered fluorescent by incubation for 24 h in the presence of 5 μg/ml of Di-I (1,1′-dioctadecyl-3,3,3′3′-tetramethylindocarbocyanine perchlorate) and subsequently seeded (5 × 10^4 cells/insert) in the upper chambers (inserts) in serum-free culture medium supplemented with 25 μM COB223 or with vehicle (DMSO). Serum supplemented medium (5% FCS) was placed in the lower chambers (plate wells). After incubation for 4 h or 24 h at 37°C, the fluorescence of cells that had passed through the dyed membrane was measured on a plate reader at 540 nm/570 nm excitation/emission wavelengths. […]
Figure S1: Effect of COB223 on endothelial cell migration. […] Wound closure was measured after 24 h and 48 h of incubation as described in Material and Methods. […]
(B) Boyden chamber assay: The technique is described in Material and Methods. We measured the passage of fluorescently labeled HUVEC cells through a 3 μm-porous membrane in response to fetal calf serum used as a chemo-attractant. […] The Figure represents the mean fluorescence ± SD of duplicate determinations after 24 h or 48h of incubation from two independent experiments. […]

[3] = tested on: LLC/2 cells; test: 3H-thymidine incorporation, LLC/2; format: cell-based; conditions: LLC/2 lung carcinoma cells; less efficiently than on endothelial cells
Description: Cells were treated with molecules in complete medium. After 22 h, 1 μCi per well H^3 thymidine was added for 2 hours. Cells are then fixed by 10% trichloroacetic acid and harvested with 0.2N NaOH, 1% SDS. Radioactivity was measured in a beta counter.

[4] = tested on: VEGFR2 phosphorylation; test: Western blot, VEGFR2 autophosphorylation in HUVEC; format: cell-based, human; conditions: 10 ng/mL VEGF-A 15 min, 25 μM COB223
Description: Figure 9 Effect of COB223 on growth factor-induced VEGF-R2, MEK and ERK phosphorylations (A) Serum-starved HUVEC cells were incubated for 15 min in the presence of either 10 ng/mL VEGF-A or 20 ng/mL FGF-2 and in the absence or the presence of 25 μM COB223. The phosphorylations of VEGFR2 on tyrosine 1175 or tyrosine 1214, of MEK and ERK1/2 were then analyzed by Western blot analysis of the cell lysates as described in Material and Methods. Western blots for total VEGFR2, MEK and ERK1/2 were used as loading controls. The blots shown in Figure 9A were obtained in one representative experiment. (B) The hybridization signals observed in 5 similar but independent experiments were quantitated and the ratios between phospho-VEGFR2(Y1175) or (Y1214) and VEGFR2 signals were normalized to the value observed in the absence of COB223. (C) The hybridization signals observed in 5 similar but independent experiments were quantitated and the ratios between phospho-ERK1/2 and ERK1/2 and between phospho-MEK and MEK were normalized to the values observed in the absence of COB223. Additional experiments performed with 10% fetal calf serum (FCS) as a mitogen were included in this analysis. * : p < 0.05; ** : p < 0.01
Serum-starved HUVEC cells were incubated for 15 min in the presence of either 10 ng/mL VEGF-A or 20 ng/mL FGF-2 and in the absence or the presence of indicated concentration of COB223. […]

[5] = tested on: p38 MAP kinase phosphorylation; test: p38 MAP kinase phosphorylation in HUVEC; format: cell-based, human; conditions: data not shown

CN(C)c1cccc2c(S(=O)(=O)NCCCN3CCN(CCCNC(=O)OC(C)(C)C)CC3)cccc12 [COB223, tert-Butyl 3-(4-(3-(5-(dimethylamino)naphthalene-1-sulfonamido)propyl)piperazin-1-yl) propylcarbamate]
EC50 ([1]; as quoted): 5 µM | IC50 ([1]; wound closure after 24 h, 10% FCS, tested 3.125 μM to 100 μM): 5 µM | migration towards fetal calf serum (Boyden chamber) [2]: significantly inhibited | effect on cell proliferation [3]: inhibited | autophosphorylation of VEGFR2 on tyrosine 1175 [4]: did not alter | autophosphorylation of VEGFR2 on tyrosine 1214 [4]: did not alter | activation of p38 MAP kinase phosphorylation by VEGF or serum [5]: unaffected
